Test results taken from US6617338B2, “Orally administrable acid stable antiulcer benzimidazole derivatives” (priority 2000, dated 2003).

Test system: pylorus ligated rats
Test: Pylorus ligated rats: total acid output and ulcer index
Type: in vivo, Wistar albino rats
Conditions: 0.4 mg/kg × 1 day p.o., mean ± SEM
Description: The distribution of animals in groups, the sequence of trials and the treatment allotted to each group were randomized. Gastric ulceration was produced by pylorus ligation and absolute ethanol administration. In these methods, animals were fasted for 36 hrs before the experiment. Coprohagy was prevented by fasting the animals in cages with grating as the floor. […] The animals were sacrificed using anaesthetic ether after the completion of experiments; the stomachs were removed, opened along the greater curvature, washed with saline and examined with 6.4* (cm diameter) binocular magnifier. Lesions were assessed by two observers unaware of the experimental protocol. […] They were administered per orally, 30 minutes after the drug treatment the animals were subjected to any ulcerogenic procedure. Rats were anesthetized with anaesthetic ether and the portion of abdomen was opened by a small midline incision below the xiphoid process. Pylorus portion of the stomach was lifted and ligated. […] The stomach was isolated from the body and its contents were collected, measured and centrifuged. […] Immediately after the removal of the contents from the stomach, they were examined for lesions in the stomach portion which were measured and expressed in terms of ulcer index calculated as the total ulcerated area divided by the total mucosal area.

What does the source list for “5-methoxy-2[(4-methoxy-3,5-dimethyl-2-pyridinyl)sulfinyl]-1H-benzimidazole [Omeprazole]”?
Total acid output (pylorus ligation 19 hours): 72.93 ± 7.17 meq/L/100 g; Ulcer index (total ulcerated area divided by total mucosal area): 0.88 ± 0.10
